From patent publication US5633263A, “Linear somatostatin analogs” (The Administrators of the Tulane Educational Fund, priority 1994, dated 1997)
Where a SMILES comes first, the peptide text is derived from it. [ ]: non-standard residue; d: D form.

Experiments:
[1] = biological target: [125I-Tyr11]SRIF-14 binding to crude membrane preparations from rat cerebral cortex; experiment: Inhibition of [125I]SRIF-14 binding, brain membranes; settings: [125I]SRIF-14 approximately 0.05 nM, read-out: IC50 (nM) Brain, inhibition of I125 SRIF-14 binding
Experimental: (§1) Crude membrane preparations were obtained from rat pancreas, cerebral cortex, or human small cell lung carcinoma (NCI-H69) cells by homogenizing (Polytron, setting 6, 15 sec) the tissues or cells in ice-cold 50 mM Tris-HCl and centrifuging twice at 39,000× g (10 min), with an intermediate resuspension in fresh buffer. The final pellets were resuspended in 10 mM Tris-HCl for assay. Aliquots of the membrane preparation were incubated for 25 min at 30° C. with labeled somatotropin-release-inhibiting factor, [^125 I-Tyr^11 ] SRIF-14 (2000 Ci/mmol, Amersham Corp.), in 50 mM HEPES (pH 7.4) containing bovine serum albumin (10 mg/ml; fraction V, Sigma Chem.), MgCl2 (5mM), Trasylol (200 KIU/ml), bacitracin (0.02 mg/ml), and phenylmethylsulphonyl fluoride (0.02 mg/ml). The final assay volume was 0.3 ml. The incubations were terminated by rapid filtration through Whatman GF/C filters (pre-soaked in 0.3% polyethylenimine) under reduced pressure. Each tube and filter were then washed three times with 5 ml aliquots of ice-cold buffer. Specific binding was defined as the total [^125 I]SRIF-14 bound minus that bound in the presence of 200 nM unlabelled SRIF-14.
(§2) Table 1 gives results of inhibition of [^125 I]SRIF-14 binding by linear peptides of the invention. The concentration of [^125 I]SRIF-14 was approximately 0.05 nM. […]

[2] = tested on: [125I-Tyr11]SRIF-14 binding to crude membrane preparations from human small cell lung carcinoma (NCI-H69) cells; experiment: Inhibition of [125I]SRIF-14 binding, SCLC membranes; settings: [125I]SRIF-14 approximately 0.05 nM, read-out: IC50 (nM) SCLC, inhibition of I125 SRIF-14 binding
Experimental: as §1, §2

[3] = biological target: [125I-Tyr11]SRIF-14 binding to crude membrane preparations from rat pancreas; experiment: Inhibition of [125I]SRIF-14 binding, pancreas membranes; settings: for IC50: rat pancreas membranes, [125I]SRIF-14 approximately 0.05 nM, read-out: IC50 (nM) Pancreas, inhibition of I125 SRIF-14 binding
Experimental: as §1
Table 1 gives results of inhibition of [^125 I]SRIF-14 binding by linear peptides of the invention. The concentration of [^125 I]SRIF-14 was approximately 0.05 nM. (Values in parenthesis indicate the number of independent determinations.) The IC50 (concentration of analog resulting is 50% competitive inhibition) in nM values are indicated for pancreas, small cell lung carcinoma (SCLC), and brain. […] Peptide DC-23-85, which is not within the invention, inhibits the binding of I^125 SRIF-14 only poorly.

SMILES	IC50 [1]	IC50 [2]	IC50 [3]	inhibiting the binding of I125 SRIF-14 (in words) ([3]; summary in words of Table 1 (pancreas, SCLC, brain))
C[C@@H](O)[C@H](NC(=O)[C@H](Cc1ccccc1)NC(=O)[C@@H](NC(=O)[C@H](CCCCN)NC(=O)[C@@H](Cc1c[nH]c2ccccc12)NC(=O)[C@H](Cc1ccccc1)NC(=O)[C@H](Cc1ccccc1)NC(=O)[C@H](N)Cc1ccccc1)[C@@H](C)O)C(N)=O [BIM-23052/DC-23-99, D-Phe-Phe-Phe-D-Trp-Lys-Thr-Phe-Thr-NH2] (H-[dF]FF[dW]KTFT-NH2)	7.3 nM	1.2 nM	9.4 nM	particularly effective
C[C@H](N)C(=O)NCC(=O)N[C@H]1CSSC[C@@H](C(=O)O)NC(=O)[C@H](CO)NC(=O)[C@H]([C@@H](C)O)NC(=O)[C@H](Cc2ccccc2)NC(=O)[C@H]([C@@H](C)O)NC(=O)[C@H](CCCCN)NC(=O)[C@H](Cc2c[nH]c3ccccc23)NC(=O)[C@H](Cc2ccccc2)NC(=O)[C@H](Cc2ccccc2)NC(=O)[C@H](CC(N)=O)NC(=O)[C@H](CCCCN)NC1=O [Somatostatin, Ala-Gly-Cys-Lys-Asn-Phe-Phe-Trp-Lys-Thr-Phe-Ser-OH]	0.53 nM	4.2 nM	0.53 nM	–
